Measurements reported in patent EP0539209A1, “Benzo-isoquinoline derivatives and analogs and their use in therapeutics” (THE UPJOHN COMPANY, priority 1991, dated 1993).

Tests used:
[1] = molecular target: Dopamine - D2 (Homo sapiens, UniProt P14416); assay: CNS Receptor Binding Assay, dopamine D2; settings: PART I - TABLE I; test compounds at 1 microMolar concentration
Source text: (§1) CNS Receptor Binding Assay (PART I - TABLE I): The Central Nervous System Binding Assay measures the percent inhibibition from experiments employing test compounds at 1 microMolar concentration competing with various radioligands for binding to whole brain membranes, membranes prepared from specific brain structures, or membranes prepared from cell lines expressing cloned receptors. When percent inhibition is equal to 100 the test compound binds as well as the standard compound. The standard compound for the 5-HT1A receptor is 8-OH-DPAT. The standard compound for the dopamine D1 receptor is SCH 23390.
as §1, with “(PART II” for “(PART I”, “percent inhibition” for “percent inhibibition”, “the” for “the 5-HT1A receptor is 8-OH-DPAT. The standard compound for the”

[2] = molecular target: dopamine D1 receptor (Homo sapiens, UniProt P21728); assay: CNS Receptor Binding Assay, dopamine D1; settings: PART I - TABLE I; test compounds at 1 microMolar concentration; standard SCH 23390
Chain of dopamine D1 receptor (P21728 whole entry, species assumed): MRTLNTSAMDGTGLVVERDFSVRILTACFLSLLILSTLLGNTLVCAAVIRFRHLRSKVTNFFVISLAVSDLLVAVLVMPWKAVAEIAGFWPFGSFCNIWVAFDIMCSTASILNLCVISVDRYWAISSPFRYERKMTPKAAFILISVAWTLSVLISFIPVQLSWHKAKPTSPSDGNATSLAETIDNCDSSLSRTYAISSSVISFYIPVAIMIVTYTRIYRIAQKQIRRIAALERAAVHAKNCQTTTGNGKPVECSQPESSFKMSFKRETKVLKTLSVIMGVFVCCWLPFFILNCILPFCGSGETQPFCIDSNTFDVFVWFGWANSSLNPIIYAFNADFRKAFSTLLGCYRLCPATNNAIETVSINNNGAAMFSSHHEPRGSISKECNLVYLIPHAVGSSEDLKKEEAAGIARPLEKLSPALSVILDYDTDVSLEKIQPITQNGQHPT
Source text: as §1
as §1, with “(PART II” for “(PART I”, “percent inhibition” for “percent inhibibition”, “the” for “the 5-HT1A receptor is 8-OH-DPAT. The standard compound for the”

[3] = molecular target: T1, 5-HT1A receptor (Homo sapiens, UniProt P08908); assay: CNS Receptor Binding Assay, 5-HT1A; settings: PART I - TABLE I; test compounds at 1 microMolar concentration competing with radioligand; 100 = binds as well as standard 8-OH-DPAT
T1 sequence (P08908 1-422): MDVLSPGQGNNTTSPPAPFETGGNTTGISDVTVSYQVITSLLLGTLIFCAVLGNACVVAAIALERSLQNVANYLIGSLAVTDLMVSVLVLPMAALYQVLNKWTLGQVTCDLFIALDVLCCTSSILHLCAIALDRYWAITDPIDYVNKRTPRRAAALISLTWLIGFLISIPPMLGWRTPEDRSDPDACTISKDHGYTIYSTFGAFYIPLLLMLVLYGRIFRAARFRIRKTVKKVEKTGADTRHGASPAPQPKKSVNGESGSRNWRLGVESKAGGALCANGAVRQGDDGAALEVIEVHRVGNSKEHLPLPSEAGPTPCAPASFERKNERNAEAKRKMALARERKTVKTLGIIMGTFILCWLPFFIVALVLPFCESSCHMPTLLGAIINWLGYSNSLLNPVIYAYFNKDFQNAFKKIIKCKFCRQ
Source text: as §1

Chain of Dopamine - D2 (P14416 whole entry): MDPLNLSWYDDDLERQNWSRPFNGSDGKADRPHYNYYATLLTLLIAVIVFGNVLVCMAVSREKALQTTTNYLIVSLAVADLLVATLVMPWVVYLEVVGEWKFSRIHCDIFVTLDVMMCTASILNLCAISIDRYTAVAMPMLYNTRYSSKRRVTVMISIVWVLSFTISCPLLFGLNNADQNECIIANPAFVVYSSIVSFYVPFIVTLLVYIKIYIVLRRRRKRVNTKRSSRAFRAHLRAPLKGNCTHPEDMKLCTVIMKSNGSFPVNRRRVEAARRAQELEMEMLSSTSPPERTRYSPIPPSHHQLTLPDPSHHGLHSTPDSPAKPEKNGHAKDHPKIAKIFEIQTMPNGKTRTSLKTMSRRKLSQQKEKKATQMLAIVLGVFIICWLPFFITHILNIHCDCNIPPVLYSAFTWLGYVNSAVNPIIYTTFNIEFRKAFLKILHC

Structure (SMILES)	inhibition at 1 µM [1] [%]	Dopamine - D1 % inhibition [2] [%]	inhibition at 1 µM [3] [%]	Dopamine - D2 % inhibition [1] [%]	5-HT1A % inhibition [3] [%]	inhibition at 1 µM [2] [%]
CCCN1CCC2Cc3c(C(N)=O)cccc3C2CC1 (single isomer, unassigned) [compound 5]	24	10	24	–	–	–
CCCN1CCC2Cc3cccc(C(N)=O)c3C2CC1 (single isomer, unassigned) [compound 4]	–	0	–	2	21	–
CCCN1CCC2Cc3cccc(C(N)=O)c3C2CC1 (single isomer, unassigned) [compound 3]	–	13	–	45	93	–
CCCN1CCC2Cc3c(C(N)=O)cccc3C2CC1 (single isomer, unassigned) [compound 6]	–	50	–	31	18	–
CCCN1CCC2Cc3c(C#N)cccc3C2CC1 (single isomer, unassigned) [compound 8]	35	–	15	–	–	7
CCCN1CCC2Cc3c(C#N)cccc3C2CC1 (single isomer, unassigned) [compound 7]	–	11	–	22	17	–
CCCN1CCC2Cc3c(Cl)ccc(OC)c3C2CC1 (stereo not drawn) [compound 1]	74	–	99	–	–	57
